Source: patent US9868772B2 (INDIANA UNIVERSITY RESEARCH AND TECHNOLOGY CORPORATION, priority 2012, dated 2018)
Numbered stars: 1 amine (or outer) side, 2 acyl side, 3 side chain; on linkers, the order of the positions; unused ones are H or OH. Square brackets hold non-standard residues; d marks the D form. Side chains are listed from the residue outwards. Peptide text beside a SMILES is read from it. * marks the point of attachment. γGlu = O=C(O)[C@H](CCC(=O)[*:2])N[*:1]; Desaminohistidyl = O=C(CCc1c[nH]cn1)*; Palmitoyl = CCCCCCCCCCCCCCCC(=O)*

Assays:
Test in all cases: cAMP induction, firefly luciferase reporter assay in HEK293 cells co-transfected with receptor
Format in all cases: cell-based
[1] = biological target: T1, GIP receptor (Homo sapiens, UniProt P48546)
T1 construct: expressed in transfected cells; host or cells: HEK293
T1 sequence (P48546 22-466): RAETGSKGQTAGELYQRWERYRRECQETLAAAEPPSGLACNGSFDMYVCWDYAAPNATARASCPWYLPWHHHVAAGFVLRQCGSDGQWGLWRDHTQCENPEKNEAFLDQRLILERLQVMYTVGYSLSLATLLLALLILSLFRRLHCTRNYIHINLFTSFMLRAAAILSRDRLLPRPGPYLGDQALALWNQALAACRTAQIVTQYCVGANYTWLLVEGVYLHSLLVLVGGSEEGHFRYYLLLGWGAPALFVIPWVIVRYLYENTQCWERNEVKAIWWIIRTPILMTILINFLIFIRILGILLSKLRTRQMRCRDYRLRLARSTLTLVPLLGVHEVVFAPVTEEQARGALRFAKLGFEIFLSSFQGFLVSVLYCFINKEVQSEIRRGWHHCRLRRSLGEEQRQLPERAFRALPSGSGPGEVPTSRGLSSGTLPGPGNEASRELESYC
Protocol: (§1) The ability of glucagon analogs to induce cAMP was measured in a firefly luciferase-based reporter assay. […] At the end of the incubation 100 microliters of LucLite luminescence substrate reagent (Perkin-Elmer, Wellesley, Mass.) were added to each well. […] Effective 50% concentrations were calculated by using Origin software (OriginLab, Northampton, Mass.

[2] = biological target: T2, glucagon receptor (Homo sapiens, UniProt P47871)
T2 construct: expressed in transfected cells; host or cells: HEK293
T2 sequence (P47871 26-477): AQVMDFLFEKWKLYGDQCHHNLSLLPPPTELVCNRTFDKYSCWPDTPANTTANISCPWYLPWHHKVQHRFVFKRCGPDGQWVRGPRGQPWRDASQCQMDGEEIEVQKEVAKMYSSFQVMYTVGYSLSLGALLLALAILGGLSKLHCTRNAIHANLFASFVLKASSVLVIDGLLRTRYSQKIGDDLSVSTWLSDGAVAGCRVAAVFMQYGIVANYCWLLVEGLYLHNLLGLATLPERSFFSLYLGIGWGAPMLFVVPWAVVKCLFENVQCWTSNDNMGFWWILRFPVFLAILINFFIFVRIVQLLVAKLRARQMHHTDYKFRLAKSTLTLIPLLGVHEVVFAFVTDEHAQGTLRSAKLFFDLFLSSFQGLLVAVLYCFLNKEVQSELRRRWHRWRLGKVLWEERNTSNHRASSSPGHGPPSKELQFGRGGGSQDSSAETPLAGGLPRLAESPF
Protocol: as §1

[3] = biological target: T3, GLP-1 receptor (Homo sapiens, UniProt P43220)
T3 construct: expressed in transfected cells; host or cells: HEK293
T3 sequence (P43220 24-463): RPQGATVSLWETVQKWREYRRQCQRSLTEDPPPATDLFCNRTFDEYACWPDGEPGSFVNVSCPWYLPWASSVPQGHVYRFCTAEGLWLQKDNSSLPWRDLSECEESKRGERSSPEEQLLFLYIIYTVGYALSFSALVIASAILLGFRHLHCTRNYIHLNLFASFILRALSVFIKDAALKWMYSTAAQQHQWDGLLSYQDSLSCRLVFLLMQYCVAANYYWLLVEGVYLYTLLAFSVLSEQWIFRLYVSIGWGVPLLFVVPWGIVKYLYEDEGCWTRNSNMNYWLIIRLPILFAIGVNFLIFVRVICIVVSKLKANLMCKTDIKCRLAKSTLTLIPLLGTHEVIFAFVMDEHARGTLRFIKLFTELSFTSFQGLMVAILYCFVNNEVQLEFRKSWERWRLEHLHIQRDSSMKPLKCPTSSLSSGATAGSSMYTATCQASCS
Protocol: as §1

[4] = Table 1, analogs of SEQ ID NO: 37
[5] = Table 2, analogs of SEQ ID NO: 10

Compound | EC50 [1, 4] [pM] | EC50 [2, 4] [pM] | EC50 [3, 4] [pM] | EC50 [1, 5] [pM] | EC50 [2, 5] [pM] | EC50 [3, 5] [pM]
CCCCCCCCCCCCCCCC(=O)N[C@@H](CCC(=O)NCCCC[C@H](NC(=O)[C@H](CC(=O)O)NC(=O)[C@H](CO)NC(=O)[C@@H](NC(=O)[C@H](Cc1ccccc1)NC(=O)[C@@H](NC(=O)CNC(=O)[C@H](CCC(N)=O)NC(=O)[C@H](C)NC(=O)CCc1c[nH]cn1)[C@@H](C)O)[C@@H](C)O)C(=O)N[C@@H](CO)C(=O)N[C@@H](CCCCN)C(=O)N[C@@H](Cc1ccc(O)cc1)C(=O)N[C@@H](CC(C)C)C(=O)N[C@@H](CC(=O)O)C(=O)N[C@@H](CCC(=O)O)C(=O)N[C@@H](CCCNC(=N)N)C(=O)N[C@@H](C)C(=O)N[C@@H](C)C(=O)N[C@@H](CCC(N)=O)C(=O)N[C@@H](CC(=O)O)C(=O)N[C@@H](Cc1ccccc1)C(=O)N[C@H](C(=O)N[C@@H](CCC(N)=O)C(=O)N[C@@H](Cc1c[nH]c2ccccc12)C(=O)N[C@@H](CC(C)C)C(=O)N[C@@H](CC(C)C)C(=O)N[C@@H](CCC(=O)O)C(=O)NCC(=O)NCC(=O)N1CCC[C@H]1C(=O)N[C@@H](CO)C(=O)N[C@@H](CO)C(=O)NCC(=O)N[C@@H](C)C(=O)N1CCC[C@H]1C(=O)N1CCC[C@H]1C(=O)N1CCC[C@H]1C(=O)N[C@@H](CO)C(N)=O)C(C)C)C(=O)O [compound 22] (Desaminohistidyl-AQGTFTSDK([γGlu-Palmitoyl])SKYLDERAAQDFVQWLLEGGPSSGAPPPS-NH2) | 41 | 17 | 3 |  |  | 
CCCCCCCCCCCCCCCC(=O)N[C@@H](CCC(=O)NCCCC[C@H](NC(=O)[C@H](CC(=O)O)NC(=O)[C@H](CO)NC(=O)[C@@H](NC(=O)[C@H](Cc1ccccc1)NC(=O)[C@@H](NC(=O)CNC(=O)[C@H](CCC(N)=O)NC(=O)[C@H](C)NC(=O)[C@@H](Cc1ccc(O)cc1)NC(C)=O)[C@@H](C)O)[C@@H](C)O)C(=O)N[C@@H](CO)C(=O)N[C@@H](CCCCN)C(=O)N[C@@H](Cc1ccc(O)cc1)C(=O)N[C@@H](CC(C)C)C(=O)N[C@@H](CC(=O)O)C(=O)N[C@@H](CCC(=O)O)C(=O)N[C@@H](CCCNC(=N)N)C(=O)N[C@@H](C)C(=O)N[C@@H](C)C(=O)N[C@@H](CCC(N)=O)C(=O)N[C@@H](CC(=O)O)C(=O)N[C@@H](Cc1ccccc1)C(=O)N[C@H](C(=O)N[C@@H](CCC(N)=O)C(=O)N[C@@H](Cc1c[nH]c2ccccc12)C(=O)N[C@@H](CC(C)C)C(=O)N[C@@H](CC(C)C)C(=O)N[C@@H](CCC(=O)O)C(=O)NCC(=O)NCC(=O)N1CCC[C@H]1C(=O)N[C@@H](CO)C(=O)N[C@@H](CO)C(=O)NCC(=O)N[C@@H](C)C(=O)N1CCC[C@H]1C(=O)N1CCC[C@H]1C(=O)N1CCC[C@H]1C(=O)N[C@@H](CO)C(N)=O)C(C)C)C(=O)O [compound 12] | 2 | 7 | 3 |  |  | 
CCCCCCCCCCCCCCCC(=O)N[C@@H](CCC(=O)NCCCC[C@H](NC(=O)[C@H](CC(=O)O)NC(=O)[C@H](CO)NC(=O)[C@@H](NC(=O)[C@H](Cc1ccccc1)NC(=O)[C@@H](NC(=O)CNC(=O)[C@H](CCC(N)=O)NC(=O)[C@H](C)NC(=O)[C@H](N)Cc1ccc(O)cc1)[C@@H](C)O)[C@@H](C)O)C(=O)N[C@@H](CO)C(=O)N[C@@H](CCCCN)C(=O)N[C@@H](Cc1ccc(O)cc1)C(=O)N[C@@H](CC(C)C)C(=O)N[C@@H](CC(=O)O)C(=O)N[C@@H](CCC(=O)O)C(=O)N[C@@H](CCCNC(=N)N)C(=O)N[C@@H](C)C(=O)N[C@@H](C)C(=O)N[C@@H](CCC(N)=O)C(=O)N[C@@H](CC(=O)O)C(=O)N[C@@H](Cc1ccccc1)C(=O)N[C@H](C(=O)N[C@@H](CCC(N)=O)C(=O)N[C@@H](Cc1c[nH]c2ccccc12)C(=O)N[C@@H](CC(C)C)C(=O)N[C@@H](CC(C)C)C(=O)N[C@@H](CCC(=O)O)C(=O)NCC(=O)NCC(=O)N1CCC[C@H]1C(=O)N[C@@H](CO)C(=O)N[C@@H](CO)C(=O)NCC(=O)N[C@@H](C)C(=O)N1CCC[C@H]1C(=O)N1CCC[C@H]1C(=O)N1CCC[C@H]1C(=O)N[C@@H](CO)C(N)=O)C(C)C)C(=O)O [compound 15] | 8 | 50 | 4 |  |  | 
CCCCCCCCCCCCCCCC(=O)N[C@@H](CCC(=O)NCCCC[C@H](NC(=O)[C@H](CC(=O)O)NC(=O)[C@H](CO)NC(=O)[C@@H](NC(=O)[C@H](Cc1ccccc1)NC(=O)[C@@H](NC(=O)CNC(=O)[C@H](CCC(N)=O)NC(=O)[C@H](C)NC(=O)[C@@H](Cc1ccccc1)NC(C)=O)[C@@H](C)O)[C@@H](C)O)C(=O)N[C@@H](CO)C(=O)N[C@@H](CCCCN)C(=O)N[C@@H](Cc1ccc(O)cc1)C(=O)N[C@@H](CC(C)C)C(=O)N[C@@H](CC(=O)O)C(=O)N[C@@H](CCC(=O)O)C(=O)N[C@@H](CCCNC(=N)N)C(=O)N[C@@H](C)C(=O)N[C@@H](C)C(=O)N[C@@H](CCC(N)=O)C(=O)N[C@@H](CC(=O)O)C(=O)N[C@@H](Cc1ccccc1)C(=O)N[C@H](C(=O)N[C@@H](CCC(N)=O)C(=O)N[C@@H](Cc1c[nH]c2ccccc12)C(=O)N[C@@H](CC(C)C)C(=O)N[C@@H](CC(C)C)C(=O)N[C@@H](CCC(=O)O)C(=O)NCC(=O)NCC(=O)N1CCC[C@H]1C(=O)N[C@@H](CO)C(=O)N[C@@H](CO)C(=O)NCC(=O)N[C@@H](C)C(=O)N1CCC[C@H]1C(=O)N1CCC[C@H]1C(=O)N1CCC[C@H]1C(=O)N[C@@H](CO)C(N)=O)C(C)C)C(=O)O [compound 150] |  |  |  | 11 | 14 | 2
CCCCCCCCCCCCCCCC(=O)N[C@@H](CCC(=O)NCCCC[C@H](NC(=O)[C@H](CC(=O)O)NC(=O)[C@H](CO)NC(=O)[C@@H](NC(=O)[C@H](Cc1ccccc1)NC(=O)[C@@H](NC(=O)CNC(=O)[C@H](CCC(=O)O)NC(=O)[C@H](C)NC(=O)[C@@H](Cc1ccc(O)cc1)NC(C)=O)[C@@H](C)O)[C@@H](C)O)C(=O)N[C@@H](CO)C(=O)N[C@@H](CCCCN)C(=O)N[C@@H](Cc1ccc(O)cc1)C(=O)N[C@@H](CC(C)C)C(=O)N[C@@H](CC(=O)O)C(=O)N[C@@H](CCC(=O)O)C(=O)N[C@@H](CCCNC(=N)N)C(=O)N[C@@H](C)C(=O)N[C@@H](C)C(=O)N[C@@H](CCC(N)=O)C(=O)N[C@@H](CC(=O)O)C(=O)N[C@@H](Cc1ccccc1)C(=O)N[C@H](C(=O)N[C@@H](CCC(N)=O)C(=O)N[C@@H](Cc1c[nH]c2ccccc12)C(=O)N[C@@H](CC(C)C)C(=O)N[C@@H](CC(C)C)C(=O)N[C@@H](CCC(=O)O)C(=O)N[C@@H](C)C(=O)NCC(=O)N1CCC[C@H]1C(=O)N[C@@H](CO)C(=O)N[C@@H](CO)C(=O)NCC(=O)N[C@@H](C)C(=O)N1CCC[C@H]1C(=O)N1CCC[C@H]1C(=O)N1CCC[C@H]1C(=O)N[C@@H](CO)C(N)=O)C(C)C)C(=O)O [compound 144] (Ac-[dY]AEGTFTSDK([γGlu-Palmitoyl])SKYLDERAAQDFVQWLLEAGPSSGAPPPS-NH2) |  |  |  | 3 | 1300 | 17
